pIC50, pKd: −log10 of the molar value.
Key:
human RIPK1 = human RIPK1 (Homo sapiens (Human), UniProt Q13546); experiment: KINOMEscan binding assay, human RIPK1; settings: equilibrium dissociation constant
In short: (§1)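 Assay principle: test compound competes with immobilized bead ligand for kinase; kinase retained, then eluted, is counted by qPCR. Conditions were 1% DMSO final with 11 compound concentrations in 3-fold steps, 30,000 nM top for most. The Hill equation with slope −1 gave Kd.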

human RIPK3 = human RIPK3 (Homo sapiens (Human), UniProt Q9Y572); experiment: KINOMEscan binding assay, human RIPK3; settings: equilibrium dissociation constant
human RIPK3, sequence (Q9Y572 whole entry): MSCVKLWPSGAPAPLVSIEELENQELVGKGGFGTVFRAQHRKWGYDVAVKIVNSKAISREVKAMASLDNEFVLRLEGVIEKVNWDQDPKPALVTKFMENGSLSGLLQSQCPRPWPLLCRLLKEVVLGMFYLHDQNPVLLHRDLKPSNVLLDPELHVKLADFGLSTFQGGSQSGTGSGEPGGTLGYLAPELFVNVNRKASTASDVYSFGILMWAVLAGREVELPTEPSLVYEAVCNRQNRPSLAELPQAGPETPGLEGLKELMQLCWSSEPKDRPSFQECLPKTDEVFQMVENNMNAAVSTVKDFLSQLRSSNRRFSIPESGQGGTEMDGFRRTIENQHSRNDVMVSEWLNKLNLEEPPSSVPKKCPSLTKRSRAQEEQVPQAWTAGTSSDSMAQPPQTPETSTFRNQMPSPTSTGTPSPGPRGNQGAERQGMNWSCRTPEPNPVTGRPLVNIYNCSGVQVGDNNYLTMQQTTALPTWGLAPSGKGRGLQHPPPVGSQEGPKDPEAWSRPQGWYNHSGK
In short: as §1

[1] = tested on: U937 human histiocytic leukemia cell line; experiment: Inhibition of TSQ induced necroptosis in U937 cells (CellTitre-Glo); settings: Homo sapiens, U-937, TSQ cocktail (TNF, Smac mimetic, Q-VD-OPh), 48 hours, read-out: Inhibition of TSQ-induced necroptosis (IC50 cell-based assay)
In short: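 Necroptosis was induced with TNF-Fc (100 ng/ml), Smac mimetic (500 nM) and Q-VD-OPh (10 μM) in 20000 U937 cells/well exposed to a 10-point, 3-fold compound series (top 36 μM, 0.3% DMSO). ATP luminescence read after 48 h; 4-parameter fit gave IC50. Parallel TSQ-free wells assessed compound toxicity.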

human MLKL (full length) = human MLKL (full length) (Homo sapiens (Human), UniProt Q8NB16); experiment: KINOMEscan binding assay, human MLKL (full length); settings: equilibrium dissociation constant
human MLKL (full length), sequence (Q8NB16 whole entry): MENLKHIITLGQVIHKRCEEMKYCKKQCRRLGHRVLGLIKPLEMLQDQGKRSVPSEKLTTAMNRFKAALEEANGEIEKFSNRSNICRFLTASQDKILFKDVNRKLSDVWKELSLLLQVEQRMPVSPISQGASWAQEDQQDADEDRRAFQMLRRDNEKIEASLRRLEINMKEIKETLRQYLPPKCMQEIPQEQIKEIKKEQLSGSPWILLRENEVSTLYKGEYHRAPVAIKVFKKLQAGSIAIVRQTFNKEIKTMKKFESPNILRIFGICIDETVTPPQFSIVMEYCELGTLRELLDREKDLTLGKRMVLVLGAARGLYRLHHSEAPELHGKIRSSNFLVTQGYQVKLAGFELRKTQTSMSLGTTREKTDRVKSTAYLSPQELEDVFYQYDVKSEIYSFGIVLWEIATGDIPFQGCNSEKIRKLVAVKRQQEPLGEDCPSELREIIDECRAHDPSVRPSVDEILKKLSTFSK
In short: as §1

U937 cells = experiment: Counter screen: U937 cell viability without TSQ cocktail (off-target effect); design: species or system human; settings: Homo sapiens, U-937, compound without TSQ cocktail, read-out: Off-target effect (IC50 cell-based assay)
In short: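 Off-target viability counter screen: compounds titrated 36 μM down 1:3 over 10 points (0.3% DMSO) on 20,000 U937 cells/well, no TNF/Smac mimetic/Q-VD-OPh added, 48 h incubation. ATP-based CellTiter-Glo luminescence, four-parameter logistic IC50.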

human RIPK1, sequence (Q13546 whole entry): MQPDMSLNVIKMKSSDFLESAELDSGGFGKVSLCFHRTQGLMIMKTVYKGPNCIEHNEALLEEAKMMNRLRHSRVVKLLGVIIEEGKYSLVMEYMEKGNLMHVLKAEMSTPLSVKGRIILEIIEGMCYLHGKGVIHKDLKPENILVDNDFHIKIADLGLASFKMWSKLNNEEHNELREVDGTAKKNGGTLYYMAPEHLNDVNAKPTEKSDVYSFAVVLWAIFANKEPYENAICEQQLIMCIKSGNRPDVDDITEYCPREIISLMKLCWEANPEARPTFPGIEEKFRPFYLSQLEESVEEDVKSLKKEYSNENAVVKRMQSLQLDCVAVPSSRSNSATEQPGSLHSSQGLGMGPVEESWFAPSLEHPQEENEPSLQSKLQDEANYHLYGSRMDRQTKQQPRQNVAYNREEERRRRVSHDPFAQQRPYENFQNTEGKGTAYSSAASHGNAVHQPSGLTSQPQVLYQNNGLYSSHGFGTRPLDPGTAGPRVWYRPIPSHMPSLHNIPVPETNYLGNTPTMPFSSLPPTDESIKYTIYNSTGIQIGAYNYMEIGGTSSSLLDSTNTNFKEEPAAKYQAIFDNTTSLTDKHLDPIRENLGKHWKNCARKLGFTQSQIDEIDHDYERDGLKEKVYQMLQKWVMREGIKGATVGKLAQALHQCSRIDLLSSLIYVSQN

Row | Structure (SMILES) | pKd (human RIPK1) | pKd (human RIPK3) | pKd (human MLKL (full length)) | pIC50 [1] | pIC50 (U937 cells)
1 | C[C@H](Oc1cc(-c2nn(C)c3c(-c4cnn(C5CCN(C)C5)c4)cnc(N)c23)ccc1NS(=O)(=O)C(F)F)c1ccc(F)cc1 (stereo partly drawn) [Compound 93, N-(4-(4-amino-1-methyl-7-(1-(1-methylpyrrolidin-3-yl)-1H-pyrazol-4-yl)-1H-pyrazolo[4,3-c]pyridin-3-yl)-2-((S)-1-(4-fluorophenyl)ethoxy)phenyl)-1,1-difluoromethanesulfonamide] | < 5.00 | < 5.00 | > 9.00 | 6.00 to 8.00 | < 5.00
2 | CC1CNCC(n2cc(-c3cnc(N)c4c(-c5ccc(NS(=O)(=O)C(F)F)c(O[C@@H](C)c6ccc(F)cc6)c5)nn(C)c34)cn2)C1 (stereo partly drawn) [Compound 95, N-(4-(4-amino-1-methyl-7-(1-(5-methylpiperidin-3-yl)-1H-pyrazol-4-yl)-1H-pyrazolo[4,3-c]pyridin-3-yl)-2-((S)-1-(4-fluorophenyl)ethoxy)phenyl)-1,1-difluoromethanesulfonamide] | < 5.00 | < 5.00 | 7.00 to 9.00 | 6.00 to 8.00 | < 5.00
3 | C[C@H](Oc1cc(-c2nn(C)c3c(-c4cnc(N5CCN(C)CC5)nc4)cnc(N)c23)ccc1NS(=O)(=O)C(F)F)c1ccc(F)cc1 [Compound 105, (S)-N-(4-(4-amino-1-methyl-7-(2-(4-methylpiperazin-1-yl)pyrimidin-5-yl)-1H-pyrazolo[4,3-c]pyridin-3-yl)-2-(1-(4-fluorophenyl)ethoxy)phenyl)-1,1-difluoromethanesulfonamide] | < 5.00 | < 5.00 | > 9.00 | 6.00 to 8.00 | < 5.00
4 | C[C@H](Oc1cc(-c2nn(C)c3c(-c4cnc(N(C)C)nc4)cnc(N)c23)ccc1NS(=O)(=O)C(F)F)c1ccc(F)cc1 [Compound 106, (S)-N-(4-(4-amino-7-(2-(dimethylamino)pyrimidin-5-yl)-1-methyl-1H-pyrazolo[4,3-c]pyridin-3-yl)-2-(1-(4-fluorophenyl)ethoxy)phenyl)-1,1-difluoromethanesulfonamide] | < 5.00 | < 5.00 | 7.00 to 9.00 | 6.00 to 8.00 | < 5.00
5 | C[C@H](Oc1cc(-c2nn(C)c3c(-c4ccc(N5CCN(C)CC5)nc4)cnc(N)c23)ccc1NS(=O)(=O)C(F)F)c1ccc(F)cc1 [Compound 107, (S)-N-(4-(4-amino-1-methyl-7-(6-(4-methylpiperazin-1-yl)pyridin-3-yl)-1H-pyrazolo[4,3-c]pyridin-3-yl)-2-(1-(4-fluorophenyl)ethoxy)phenyl)-1,1-difluoromethanesulfonamide] | < 5.00 | < 5.00 | > 9.00 | 6.00 to 8.00 | < 5.00
6 | C[C@H](Oc1cc(-c2nn(C)c3c(-c4cnc(N)nc4)cnc(N)c23)ccc1NS(=O)(=O)C(F)F)c1ccc(F)cc1 [Compound 108, (S)-N-(4-(4-amino-7-(2-aminopyrimidin-5-yl)-1-methyl-1H-pyrazolo[4,3-c]pyridin-3-yl)-2-(1-(4-fluorophenyl)ethoxy)phenyl)-1,1-difluoromethanesulfonamide] | < 5.00 | < 5.00 | > 9.00 | 6.00 to 8.00 | < 5.00
7 | COC[C@H](Oc1cc(-c2nn(C)c3c(-c4cnn(C5CCOCC5)c4)cnc(N)c23)ccc1NS(=O)(=O)C(F)F)c1ccc(F)cc1 [Compound 111, (R)—N-(4-(4-amino-1-methyl-7-(1-(tetrahydro-2H-pyran-4-yl)-1H-pyrazol-4-yl)-1H-pyrazolo[4,3-c]pyridin-3-yl)-2-(1-(4-fluorophenyl)-2-methoxyethoxy)phenyl)-1,1-difluoromethanesulfonamide] | < 5.00 | < 5.00 | 7.00 to 9.00 | 6.00 to 8.00 | < 5.00
8 | C[C@H](Oc1cc(-c2nn(C)c3c(-c4ccc(N5CCOCC5)nc4)cnc(N)c23)ccc1NS(=O)(=O)C(F)F)c1ccc(F)cc1 [Compound 115, (S)-N-(4-(4-amino-1-methyl-7-(6-morpholinopyridin-3-yl)-1H-pyrazolo[4,3-c]pyridin-3-yl)-2-(1-(4-fluorophenyl)ethoxy)phenyl)-1,1-difluoromethanesulfonamide] | < 5.00 | < 5.00 | 7.00 to 9.00 | 6.00 to 8.00 | < 5.00
9 | C[C@H](Oc1cc(-c2nn(C)c3c(-c4ccc(C(F)(F)F)nc4)cnc(N)c23)ccc1NS(=O)(=O)C(F)F)c1ccc(F)cc1 [Compound 117, (S)-N-(4-(4-amino-1-methyl-7-(6-(trifluoromethyl)pyridin-3-yl)-1H-pyrazolo[4,3-c]pyridin-3-yl)-2-(1-(4-fluorophenyl)ethoxy)phenyl)-1,1-difluoromethanesulfonamide] | < 5.00 | < 5.00 | 7.00 to 9.00 | 6.00 to 8.00 | < 5.00
10 | C[C@H](Oc1cc(-c2nn(C)c3c(-c4cnn(C5CCOCC5)c4)cnc(N)c23)ccc1NS(C)(=O)=O)c1ccc(F)cc1 [Compound 119, (S)-N-(4-(4-amino-1-methyl-7-(1-(tetrahydro-2H-pyran-4-yl)-1H-pyrazol-4-yl)-1H-pyrazolo[4,3-c]pyridin-3-yl)-2-(1-(4-fluorophenyl)ethoxy)phenyl)methanesulfonamide] | < 5.00 | < 5.00 | 7.00 to 9.00 | 6.00 to 8.00 | < 5.00
11 | C[C@H](Oc1cc(-c2nn(C)c3c(-c4ccn(C)c4)cnc(N)c23)ccc1NS(=O)(=O)C(F)F)c1ccc(F)cc1 [Compound 126, (S)-N-(4-(4-amino-1-methyl-7-(1-methyl-1H-pyrrol-3-yl)-1H-pyrazolo[4,3-c]pyridin-3-yl)-2-(1-(4-fluorophenyl)ethoxy)phenyl)-1,1-difluoromethanesulfonamide] | < 5.00 | < 5.00 | 7.00 to 9.00 | 6.00 to 8.00 | < 5.00
12 | C[C@H](Oc1cc(-c2nn(C)c3c(C#CC4CCN(CC(F)(F)F)CC4)cnc(N)c23)ccc1NS(=O)(=O)C(F)F)c1ccc(F)cc1 [Compound 128, (S)-N-(4-(4-amino-1-methyl-7-((1-(2,2,2-trifluoroethyl)piperidin-4-yl)ethynyl)-1H-pyrazolo[4,3-c]pyridin-3-yl)-2-(1-(4-fluorophenyl)ethoxy)phenyl)-1,1-difluoromethanesulfonamide] | < 5.00 | < 5.00 | 7.00 to 9.00 | 6.00 to 8.00 | < 5.00

Second part, led by results:

Row | pKd (human RIPK1) | pKd (human RIPK3) | pKd (human MLKL (full length)) | Structure (SMILES) | pIC50 [1] | pIC50 (U937 cells)
13 | < 5.00 | < 5.00 | > 9.00 | C[C@H](Oc1cc(-c2nn(C)c3c(-c4cnn(C5CNC5)c4)cnc(N)c23)ccc1NS(=O)(=O)C(F)F)c1ccc(F)cc1 [Compound 94, (S)-N-(4-(4-amino-7-(1-(azetidin-3-yl)-1H-pyrazol-4-yl)-1-methyl-1H-pyrazolo[4,3-c]pyridin-3-yl)-2-(1-(4-fluorophenyl)ethoxy)phenyl)-1,1-difluoromethanesulfonamide] | 6.00 to 8.00 | < 5.00
14 | < 5.00 | < 5.00 | > 9.00 | C[C@H](Oc1cc(-c2nn(C)c3c(-c4cnn(C5(C#N)CC5)c4)cnc(N)c23)ccc1NS(=O)(=O)C(F)F)c1ccc(F)cc1 [Compound 96, (S)-N-(4-(4-amino-7-(1-(1-cyanocyclopropyl)-1H-pyrazol-4-yl)-1-methyl-1H-pyrazolo[4,3-c]pyridin-3-yl)-2-(1-(4-fluorophenyl)ethoxy)phenyl)-1,1-difluoromethanesulfonamide] | 6.00 to 8.00 | < 5.00
15 | < 5.00 | < 5.00 | > 9.00 | C[C@H](Oc1cc(-c2nn(C)c3c(-c4cnn(CCN(C)C)c4)cnc(N)c23)ccc1NS(=O)(=O)C(F)F)c1ccc(F)cc1 [Compound 100, (S)-N-(4-(4-amino-7-(1-(2-(dimethylamino)ethyl)-1H-pyrazol-4-yl)-1-methyl-1H-pyrazolo[4,3-c]pyridin-3-yl)-2-(1-(4-fluorophenyl)ethoxy)phenyl)-1,1-difluoromethanesulfonamide] | > 8.00 | < 5.00
16 | < 5.00 | < 5.00 | > 9.00 | CC(C)N(C)CC(C)n1cc(-c2cnc(N)c3c(-c4ccc(NS(=O)(=O)C(F)F)c(O[C@@H](C)c5ccc(F)cc5)c4)nn(C)c23)cn1 (stereo partly drawn) [Compound 101, N-(4-(4-amino-7-(1-(1-(isopropyl(methyl)amino)propan-2-yl)-1H-pyrazol-4-yl)-1-methyl-1H-pyrazolo[4,3-c]pyridin-3-yl)-2-((S)-1-(4-fluorophenyl)ethoxy)phenyl)-1,1-difluoromethanesulfonamide] | > 8.00 | < 5.00
17 | < 5.00 | < 5.00 | > 9.00 | C[C@H](Oc1cc(-c2nn(C)c3c(-c4cnn(C(F)F)c4)cnc(N)c23)ccc1NS(=O)(=O)C(F)F)c1ccc(F)cc1 [Compound 123, (S)-N-(4-(4-amino-7-(1-(difluoromethyl)-1H-pyrazol-4-yl)-1-methyl-1H-pyrazolo[4,3-c]pyridin-3-yl)-2-(1-(4-fluorophenyl)ethoxy)phenyl)-1,1-difluoromethanesulfonamide] | > 8.00 | < 5.00

Source: patent US20250059188A1, “ARYLSULPHONAMIDE COMPOUNDS” (Anaxis Pharma Pty Ltd, priority 2021, published 2025)
